Drawing on patent US20240270821A1, “GIP/GLP1/GCG TRI-RECEPTOR AGONISTS AND USES THEREOF” (priority 2023, published 2024), this text covers EC50 for seven compounds.

Where two headings read alike, the source gives them in different places. Starred links: 1 amine or outer side, 2 acyl side, 3 side chain; linkers in the order of their positions; H or OH if unused. Non-standard residues stand in square brackets, D forms with d. Groups on a side chain read outwards from the residue. No end group written: not given here. *: point of attachment. C20 diacid = O=C(O)CCCCCCCCCCCCCCCCCCC(=O)*; C18 diacid = O=C(O)CCCCCCCCCCCCCCCCC(=O)*; αMePhe(2-F) = C[C@](N)(Cc1ccccc1F)C(=O)O; γGlu = O=C(O)[C@H](CCC(=O)[*:2])N[*:1]; αMe4Pal = C[C@](N)(Cc1ccncc1)C(=O)O; αMeY = C[C@](N)(Cc1ccc(O)cc1)C(=O)O; 4Pal = N[C@@H](Cc1ccncc1)C(=O)O; αMeL = CC(C)C[C@](C)(N)C(=O)O; αMeS = C[C@](N)(CO)C(=O)O; Orn = NCCC[C@H](N)C(=O)O; AEEA = NCCOCCOCC(=O)O; Aib = CC(C)(N)C(=O)O

Common to all, as to format: cell-based
Test [1] concerns the target T1, hGIPR (Homo sapiens, UniProt P48546).
T1 sequence (P48546 22-466): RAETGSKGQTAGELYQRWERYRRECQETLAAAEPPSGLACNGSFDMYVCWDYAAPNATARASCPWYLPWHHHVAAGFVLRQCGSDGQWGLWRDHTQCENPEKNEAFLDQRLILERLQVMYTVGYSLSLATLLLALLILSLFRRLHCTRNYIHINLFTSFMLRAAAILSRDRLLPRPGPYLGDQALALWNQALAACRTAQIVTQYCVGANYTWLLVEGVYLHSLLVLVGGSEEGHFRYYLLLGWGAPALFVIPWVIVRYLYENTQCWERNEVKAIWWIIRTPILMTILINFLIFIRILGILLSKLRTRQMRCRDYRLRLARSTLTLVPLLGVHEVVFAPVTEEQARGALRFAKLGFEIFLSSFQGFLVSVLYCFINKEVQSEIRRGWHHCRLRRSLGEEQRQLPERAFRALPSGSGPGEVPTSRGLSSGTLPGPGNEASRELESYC
In words: Functional cAMP activity in the presence of 1% HSA. As to conditions: read-out: cAMP Rel EC50, hGIPR.

Test [2] deals with T2, hGLP-1R (Homo sapiens, UniProt P43220). Nature of the test: Functional cAMP activity in the presence of 1% HSA. The note with it: read-out: cAMP Rel EC50, hGLP-1R.
T2 sequence (P43220 24-463): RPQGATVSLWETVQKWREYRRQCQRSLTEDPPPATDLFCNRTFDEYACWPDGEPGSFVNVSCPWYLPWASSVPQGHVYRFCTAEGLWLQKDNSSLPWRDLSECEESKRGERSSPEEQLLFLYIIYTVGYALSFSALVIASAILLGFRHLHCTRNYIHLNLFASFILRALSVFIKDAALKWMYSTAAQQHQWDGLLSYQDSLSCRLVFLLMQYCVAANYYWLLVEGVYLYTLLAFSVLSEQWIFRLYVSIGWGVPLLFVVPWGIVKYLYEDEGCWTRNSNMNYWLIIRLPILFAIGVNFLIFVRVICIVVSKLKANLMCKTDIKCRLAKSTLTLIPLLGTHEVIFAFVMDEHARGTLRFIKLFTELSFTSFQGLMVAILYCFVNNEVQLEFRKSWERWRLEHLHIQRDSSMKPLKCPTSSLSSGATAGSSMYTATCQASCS
A further test concerns the target human GcgR (Homo sapiens, UniProt P47871). Nature of the test: Functional cAMP activity in the presence of 1% HSA. As to conditions: read-out: cAMP Rel EC50, hGcgR.
Test [3] deals with T1, hGIPR. Nature of the test: Functional cAMP activation in the presence of 0.1% casein (no HSA). As to conditions: read-out: Relative cAMP EC50, hGIPR.
The target in test [4] is T2, hGLP-1R. The test is described as above. The note with it: read-out: Relative cAMP EC50, hGLP-1R.
For another test, the target named is hGcgR (Homo sapiens, UniProt P47871). The test is described as above. The note with it: read-out: Relative cAMP EC50, hGcgR.
Chain of hGcgR (P47871 26-477): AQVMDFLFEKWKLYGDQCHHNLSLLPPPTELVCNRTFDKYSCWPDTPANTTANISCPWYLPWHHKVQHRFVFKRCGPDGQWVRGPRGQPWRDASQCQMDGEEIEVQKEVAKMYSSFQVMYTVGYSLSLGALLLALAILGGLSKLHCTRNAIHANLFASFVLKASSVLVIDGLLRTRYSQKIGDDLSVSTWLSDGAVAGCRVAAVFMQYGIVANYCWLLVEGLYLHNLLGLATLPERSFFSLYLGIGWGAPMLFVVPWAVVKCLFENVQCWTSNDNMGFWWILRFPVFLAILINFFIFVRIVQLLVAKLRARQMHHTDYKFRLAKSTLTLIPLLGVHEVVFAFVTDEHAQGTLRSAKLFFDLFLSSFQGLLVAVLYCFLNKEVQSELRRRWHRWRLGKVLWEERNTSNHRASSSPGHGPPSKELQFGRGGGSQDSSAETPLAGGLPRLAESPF
The mark [5] stands for this setting: HEK-293 clonal cell line, 1% HSA, geometric mean of relative EC50.
The mark [6] stands for this setting: in the presence of 0.1% casein (no HSA), geometric mean of relative EC50.
Setting [7] is: in the presence of 0.1% casein (no HSA), geometric mean.
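Throughout, for Relative cAMP EC50, hGIPR: intracellular cAMP rise after 30 min at 37 °C read by HTRF against a standard curve, scaled between buffer alone (0%) and top control ligand concentration (100%), four-parameter fit.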
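Throughout, for Relative cAMP EC50, hGLP-1R: intracellular cAMP rise after 30 min at 37 °C read by HTRF, normalized between buffer only (0%) and maximal control ligand (100%), four-parameter variable-slope fit.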
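Throughout, for Relative cAMP EC50, hGcgR: intracellular cAMP rise after 30 min at 37 °C, read by HTRF against a cAMP standard curve, scaled from buffer only (0%) to maximal control ligand response (100%).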

Chain of human GcgR (P47871 26-477): as above

Broadly, the EC50 is the concentration at which the effect is half-maximal. In the case of “H-Y[Aib]QGT[αMePhe(2-F)]TSD[4Pal]SI[αMeL]LDKK([γGlu-γGlu-C18 diacid])AQ[Aib][Orn]FIEYLAEGGPSSGEPPPSGSEE-NH2 [Example 636]”, the EC50 on hGIPR [1] (setting [5]) was 4.3 nM; on hGLP-1R [2] (setting [5]), 36.6 nM; at human GcgR (setting [5]) it was 935 nM; on hGIPR [3] (setting [6]), 0.054 nM; at hGLP-1R [4] (setting [6]), 0.504 nM; at hGcgR (setting [6]), 9.28 nM.

For “H-Y[Aib]QGTFTSD[4Pal]S[Orn][αMeL]LDKK([AEEA-γGlu-γGlu-C18 diacid])AQ[αMe4Pal]AFIEYLIE[Aib]GPSSGAPPPSGS-NH2 [Example 867]”, the EC50 was 16.2 nM at hGIPR [1]; 474 nM at hGLP-1R [2]; 242 nM at human GcgR; 0.216 nM at hGIPR [3] (setting [7]); 7.38 nM at hGLP-1R [4] (setting [7]); 2.47 nM on hGcgR (setting [7]).

With `CC[C@H](C)[C@H](NC(=O)[C@H](Cc1ccccc1)NC(=O)[C@H](CCCN)NC(=O)C(C)(C)NC(=O)[C@H](CCC(N)=O)NC(=O)[C@H](C)NC(=O)[C@H](CCCCNC(=O)[C@H](CCC(=O)O)NC(=O)CC[C@H](NC(=O)CCCCCCCCCCCCCCCCC(=O)O)C(=O)O)NC(=O)[C@H](CCCN)NC(=O)[C@H](CC(=O)O)NC(=O)[C@H](CC(C)C)NC(=O)[C@](C)(CC(C)C)NC(=O)[C@@H](NC(=O)[C@](C)(CO)NC(=O)[C@H](Cc1ccncc1)NC(=O)[C@H](CC(=O)O)NC(=O)[C@H](CO)NC(=O)[C@@H](NC(=O)[C@](C)(Cc1ccccc1F)NC(=O)[C@@H](NC(=O)CNC(=O)[C@H](CCC(N)=O)NC(=O)C(C)(C)NC(=O)[C@@H](N)Cc1ccc(O)cc1)[C@@H](C)O)[C@@H](C)O)[C@@H](C)CC)C(=O)N[C@H](CCC(=O)O)C(=O)N[C@@](C)(Cc1ccc(O)cc1)C(=O)N[C@@H](CC(C)C)C(=O)N[C@@H](CCC(N)=O)C(=O)N[C@@H](CCC(=O)O)C(=O)NCC(=O)NCC(=O)N1CCC[C@H]1C(=O)N[C@@H](CO)C(=O)N[C@@H](CO)C(=O)NCC(=O)N[C@@H](CCC(=O)O)C(=O)N1CCC[C@H]1C(=O)N1CCC[C@H]1C(=O)N1CCC[C@H]1C(=O)N[C@@H](CCC(=O)O)C(=O)NCC(=O)N[C@H](C(=O)N[C@@H](CCC(=O)O)C(=O)N[C@@H](CCC(=O)O)C(N)=O)[C@@H](C)O` [Example 593], the concentration for a half-maximal effect (EC50) on hGIPR [1] was 2.71 nM; at hGLP-1R [2], 35.3 nM; on human GcgR, 591 nM; on hGIPR [3], 0.0484 nM; on hGLP-1R [4], 0.495 nM; on hGcgR, 6.57 nM.

“Y[Aib]QGT[αMePhe(2-F)]TSDYSKLLDKIAQK([AEEA-γGlu-C20 diacid])AFIQYLIEGGPSSGEPPPSEG-NH2 [Example 338]”: the EC50 came to 10.9 nM on hGIPR [1]; 172 nM on hGLP-1R [2]; 659 nM at human GcgR; 0.0733 nM at hGIPR [3] (setting [7]); 1.22 nM at hGLP-1R [4] (setting [7]); 4.02 nM on hGcgR (setting [7]).

As for “H-Y[Aib]QGTFTSD[4Pal]SQ[αMeL]LDKK([γGlu-γGlu-C18 diacid])AQ[Aib]AFIE[αMeY]LLEGGPSSGAPPPSGS-NH2 [Example 938]”, the EC50 at hGIPR [1] was 21.5 nM; on hGLP-1R [2], 263 nM; on human GcgR, 2830 nM; on hGIPR [3] (setting [7]), 0.13 nM; at hGLP-1R [4] (setting [7]), 1.84 nM; on hGcgR (setting [7]), 13.3 nM.

With “H-Y[Aib]QGT[αMePhe(2-F)]TSD[4Pal][αMeS]I[αMeL]LD[Orn]K([γGlu-γGlu-C18 diacid])AQ[Aib][Orn]FI[dE][αMeY]LSEGGPSSGEPPPSGTEEE-NH2 [Example 562]”, the concentration giving a half-maximal response (EC50) on hGIPR [1] is 10.2 nM; on hGLP-1R [2] it was 89.5 nM; at human GcgR, 427 nM; on hGIPR [3], 0.284 nM; on hGLP-1R [4] it was 1.67 nM; at hGcgR it was 6 nM.

As for “H-Y[Aib]QGT[αMePhe(2-F)]TSD[4Pal]SI[αMeL]LD[Orn]K([AEEA-γGlu-C18 diacid])AQ[αMe4Pal]EFI[dE][αMeY]LIEGGPSSGAPPPSGS-NH2 [Example 640]”, the concentration for a half-maximal effect (EC50) amounted to 0.591 nM on hGIPR [1]; 27.8 nM at hGLP-1R [2]; 730 nM on human GcgR; 0.00696 nM at hGIPR [3]; 0.288 nM at hGLP-1R [4]; 9.5 nM on hGcgR.
